Assay results taken from patent US6924391B2, “Alpha-amino,-thio,-oxo substituted ketones as phospholipase inhibitors” (Bristol-Myers Squibb Company, priority 2000, dated 2005).
Where a name gives a salt, the structure may show the parent alone.

- melting point: 53 to 62 °C
Compound: COCC(=O)C(F)(F)Cc1ccc(OCCN(C)CC(c2ccc(Cl)cc2)c2ccc(Cl)cc2)cc1 (as salt: hydrochloride) [Example 9, 4-[4-[2-[N-[2-Bis-(4-chlorophenyl)ethyl]-N-methylamino]ethoxy]phenyl]-2,2-difluoro-1-methoxy-2-butanone]
